Experimental data from patent publication US10988774B2, “System for site-specific modification of ALS gene using CRISPR-Cas9 system for production of herbicide-resistant rice and use of same” (Institute of Crop Sciences, Chinese Academy of Agricultural …, priority 2015, dated 2021).

Key:
[1] = test system: T0 site-specifically modified rice of the Cas9-arm donor group (ALS W548L, S627I); assay: Resistance to herbicide Bispyribac-sodium, spray test, ALS site-specifically modified rice; type: in vivo, Nipponbare rice; details: homologous recombinant rice, ALS W548L and S627I; spray 100 μM; 36 days after spraying
Description: (§1) The wild-type rice, and the T0 site-specifically modified rice of the Cas9-arm donor group with successful homologous recombination at the codons of both the 548th and 627th amino acids of ALS as obtained in step I were sprayed with Bispyribac-sodium in a concentration of 100 μM, and 30-50 days thereafter, the growth states of the plants were observed.

wild-type rice = assay: Resistance to herbicide Bispyribac-sodium, spray test, wild-type rice; type: in vivo, Nipponbare rice; details: spray 100 μM, 36 days after spraying
Description: as §1

`COc1cc(OC)nc(Oc2cccc(Oc3nc(OC)cc(OC)n3)c2C(=O)O)n1` [Bispyribac-sodium] was tested, and the “growth state of the plants after spraying” value [1] was “normal growth” and the “growth state of the plants after spraying” value (wild-type rice) was “withered”.
